# Where a name gives a salt, the structure may show the parent alone. Read-outs that look alike come from different tables or passages of the source.
# What was measured:
# [1] = tested on: Human Adarotene-resistant NCI-H460 (R9A) NSCLC; test: Anti-proliferative activity, H460-R9A, 24 h + 48 h recovery, SRB; assay type: cell-based; details: 24 h exposure, read-out: IC50 ± SD H460-R9A
# Description: (§1) Tumor cells were exposed for 24 h to new atypical retinoids (AR) and the anti-proliferative activity assessed upon 48 h recovery in drug-free medium with the SRB assay. RI=Resistance Index (ratio between the IC50 values of resistant and sensitive cells).
# MM487-Luc mesothelioma [2] = test: Anti-proliferative activity, MM487-Luc, 24 h + 48 h recovery, SRB; assay type: cell-based; details: Homo sapiens, 24 h exposure, read-out: IC50 ± SD MM487-Luc
# Description: as §1
# U87MG glioblastoma cells = test: Anti-proliferative activity, U87MG, 24 h + 48 h recovery, SRB; assay type: cell-based; details: Homo sapiens, U-87 MG, 24 h exposure, read-out: IC50 ± SD U87MG
# Description: as §1
# [3] = tested on: Human Adarotene-resistant NCI-H460 (R9A) NSCLC; details: Zuco V. et al, Neoplasia 2005; cited from earlier work
# [4] = tested on: H460-R9A retinoid resistant cells; test: H460-R9A lung cancer subcutaneous xenograft in mice; details: Cisplatin 4 mg/kg IV q7dx4w, MIR002 50 mg/kg OS bid, qdx5/wx4w
# Description: CD-1 nude and NOG mice, females, 4-5 weeks-old, were housed under specific-pathogen-free conditions in individually ventilated cages.
# Cells were cultured in appropriated media and expanded in a 37° C. incubator with saturated humidity and an atmosphere of 95% air and 5% CO2, and were sub-cultured every 2-3 days. Before the injection in mice, cells were checked with MycoAlert® Mycoplasma Detection Kit (Lonza) to exclude mycoplasma contamination, counted by trypan blue dye exclusion, evaluated for cell viability (>95%).
# H-460-R9A lung cancer cells were suspended at a concentration of 25×10^6/ml. 5×10^6 tumor cells were suspended in 0.2 ml of M199, then inoculated subcutaneously on the right flank of each animal.
# MIR002 was dissolved to a concentration of 3.3 mg/mL in 10% DMSO, 5% ethanol, 20% Kolliphor® EL and 65% Na2CO3 10 mM pH 11 and administered by gavage; Cisplatin was dissolved to a concentration of 0.8 mg/mL in sterile saline solution and administered intravenously.
# Four days after inoculation, tumor masses of H460-R9A were measured in length and width using a Mitutoyo caliper, mice were sorted basing on tumor volume (TV) and treatments were started. Tumor volume was calculated as follows: TV (mm3)=(Length (mm)×Width (mm)2)/2. Tumor growth was followed by biweekly measurements. Tumor Growth Inhibition (TGI) for each group was calculated as follows: TGI (%)=100−(mean TVtreated/mean TVcontrol×100). Mice were weighed twice a week.
# Human NCI-H460 NSCLC = test: Anti-proliferative activity, NCI-H460, 72 h, SRB; assay type: cell-based; details: for cytotoxic activity / IC50 range on NCI-H460 cells: SRB/MTT assay
# Description: (§2) The anti-proliferative activity of the POLA1/HDAC dual inhibitors MIR002 and GEM144 was assessed on various cell lines from solid and hematological cancers.
# (§3) Human tumor cells were treated with POLA1/HDAC dual inhibitors and cell survival assessed upon 72 h with the SRB assay. HDAC=Histone Deacetylase. POLA1=DNA Polymerase Alpha 1. RI=Resistance Index.
# [5] = tested on: parent A2780 ovarian cancer cell line; test: Anti-proliferative activity, A2780, 24 h + 48 h recovery, SRB; assay type: cell-based; details: Homo sapiens, 24 h exposure, read-out: IC50 ± SD A2780
# Description: as §1
# [6] = tested on: A2780-Dx multidrug-resistant ovarian cancer cell line; test: Anti-proliferative activity, A2780-Dx, 24 h + 48 h recovery, SRB; assay type: cell-based, Human; details: for RI (Resistance Index, ratio between the IC50 values of resistant and sensitive cells): A2780-Dx vs A2780, 24 h exposure; for IC50: Homo sapiens, A2780/DX, 24 h exposure, SRB, read-out: IC50 ± SD A2780-Dx
# Description: as §1
# As described by Zuco V. et al in Neoplasia, 2005 July; 7(7):667-77, H460-R9A are about 70 fold resistant with respect to parental H460 to Adarotene. […] Ovarian cancer A2780 and its clone derivative A2780DX (Doxorubicin resistant) which overexpress P-glycoprotein (PGP), were used to evaluate the possibility of these new molecules to be absorbed at intestinal level. In fact, the overexpression of PGP, as well known, drastically reduces the possibility, after oral administration, of absorption of several chemotherapeutic agents (i.e. Paclitaxel, doxorubicin etc.). Since the IC50 of the tested compounds in A2780 and A2780DX, have similar values we conclude that they are not PGP substrates and they could be administrated to the patients via oral route.
# U87MG-Luc (Glioma) = test: Orthotopic glioma murine model (U87MG-Luc), IVIS imaging; assay type: in vivo, mice; details: 100 mg/kg IP, qdx5x4w, intracranial U87MG-Luc
# Description: Orthotopic glioma murine model. 1×10^6 Brain glioblastoma bioluminescent cells (U-87 MG) were injected intracranically and tumor growth was evaluated through IVIS imaging system.
# Tumor growth was followed by biweekly measurements. […] Mice were weighed twice a week. […] Tumor growth was further followed by weekly BLI measurements. TGI was calculated as for the H460 trial.
# The activity of compound 2 (RC1375) was evaluated on glioma xenograft murine models. Brain glioblastoma bioluminescent cells (U-87 MG) were injected intracranically and tumor growth was evaluated through IVIS imaging system. After a week of injection, 2 (RC1375) (100 mg/kg) was administered intraperitoneally to mice (qdx5x4w).
# [7] = tested on: ST1926-resistant H460 (H460-R9A) NSCLC; test: Anti-proliferative activity, H460-R9A, 72 h, SRB; assay type: cell-based, human
# Description: as §2, §3
# [8] = tested on: parent A2780 ovarian carcinoma; test: Anti-proliferative activity, A2780, 72 h, SRB; assay type: cell-based, human; details: read-out: A2780 IC50 ± SD
# Description: as §2, §3
# [9] = tested on: multidrug-resistant A2780-Dx ovarian carcinoma; test: Anti-proliferative activity, A2780-Dx, 72 h, SRB; assay type: cell-based, human
# Description: as §2, §3
# MM473-Luc mesothelioma = test: Anti-proliferative activity, MM473-Luc, 72 h, SRB; assay type: cell-based, Human
# Description: as §2
# (§4) HDAC=Histone Deacetylase. POLA1=DNA Polymerase Alpha 1. N.e.=not evaluated.
# MM487-Luc mesothelioma [10] = test: Anti-proliferative activity, MM487-Luc, 72 h, SRB; assay type: cell-based, Human
# Description: as §2, §4
# B16-Luc (Melanoma) = test: Anti-proliferative activity, B16-Luc, 72 h, SRB; assay type: cell-based, mouse
# Description: as §2, §4
# NB4 (leukemia) = test: Cell survival, NB4, 72 h, MTT; assay type: cell-based, Human; details: read-out: NB4 (leukemia) IC50 ± SD
# Description: as §2
# (§5) Tumor cells were treated with POLA1/HDAC dual inhibitors and cell survival assessed upon 72 h with the MTT assay. HDAC=Histone Deacetylase. POLA1=DNA Polymerase Alpha 1.
# THP-1 (leukemia) = test: Cell survival, THP-1, 72 h, MTT; assay type: cell-based, Human
# Description: as §2, §5
# U2932 (lymphoma) = test: Cell survival, U2932, 72 h, MTT; assay type: cell-based, Human
# Description: as §2, §5
# Z138 (lymphoma) = test: Cell survival, Z138, 72 h, MTT; assay type: cell-based, Human
# Description: as §2, §5
# DU145 prostate carcinoma = details: 72 h; SRB
# Description: (§6) To this end, cells in the logarithmic phase of growth were seeded in 96-wells plastic plates, incubated overnight in culture medium, and treated for 72 h with scalar concentrations (2-fold dilution series) of the compounds.
# (§7) Tumor cells were exposed to the inhibitors, and the anti-proliferative activity assessed upon 72 h with the SRB assay. N.e.=not evaluated.
# HT29 colon carcinoma = details: 72 h; SRB
# Description: as §6, §7
# SW620 colon carcinoma = details: 72 h; SRB
# Description: as §6, §7
# [11] = Homo sapiens, NCI-H460, chronically exposed 72 h, SRB (Table 2), read-out: IC50 ± SD
smiles,measurement,setting,value
"O=C(O)/C=C/c1ccc(-c2ccc(O)c(C34CC5CC(CC(C5)C3)C4)c2)cc1 [Adarotene, reference compound]",IC50,[1],26900 ± 700 nM
same,IC50,MM487-Luc mesothelioma [2],9200 ± 300 nM
same,IC50,U87MG glioblastoma cells,1630 ± 100 nM
same,resistance of H460-R9A with respect to parental H460,[3],about 70 fold
same,BWL Day + 35,[4]; Adarotene 15 mg/Kg OS q7dx5x4w,12%
CC(C)(Oc1ccc(-c2ccc(/C=C/C(=O)O)cc2)cc1C12CC3CC(CC(C3)C1)C2)C(=O)NO [BIO146],cytotoxic activity / IC50 range on NCI-H460 cells,Human NCI-H460 NSCLC; 72 h,micro molar range
"N.N.[Cl][Pt][Cl] [Cisplatin, reference compound]",TGI Day + 35,[4]; combination same doses,34%
"O=C(O)/C=C/c1ccc(-c2ccc(OCCCC(=O)NO)c(C34CC5CC(CC(C5)C3)C4)c2)cc1 [Compound 1, 3-[3′-Adamantan-1-yl-4′-(3-hydroxycarbamoyl-propoxy)-biphenyl-4-yl]-acrylic acid]",IC50,Human NCI-H460 NSCLC; [11],< 5000 nM
same,IC50,[1],8300 ± 200 nM
same,IC50,MM487-Luc mesothelioma [2],1700 ± 80 nM
same,IC50,[5],4200 ± 300 nM
same,"RI (Resistance Index, ratio between the IC50 values of resistant and sensitive cells)",[6],0.9
same,IC50,[6],3900 ± 100 nM
"O=C(O)/C=C/c1ccc(-c2ccc(OCCCCC(=O)NO)c(C34CC5CC(CC(C5)C3)C4)c2)cc1 [Compound 2, 3-[3′-Adamantan-1-yl-4′-(4-hydroxycarbamoyl-butoxy)-biphenyl-4-yl]-acrylic acid]",IC50,Human NCI-H460 NSCLC; [11],< 5000 nM
same,IC50,[1],5900 ± 100 nM
same,IC50,MM487-Luc mesothelioma [2],1900 ± 200 nM
same,IC50,U87MG glioblastoma cells,5500 ± 900 nM
same,IC50,[5],3700 ± 300 nM
same,"RI (Resistance Index, ratio between the IC50 values of resistant and sensitive cells)",[6],1.3
same,IC50,[6],4500 ± 70 nM
same,BLI Average (Day),U87MG-Luc (Glioma); day +35,1.31 × 10^5 ± 1.26 × 10^5 p/s/cm^2/sr
same,TGI,U87MG-Luc (Glioma),72%
same,melting point,,224 °C (dec.)
"O=C(O)C=Cc1ccc(-c2ccc(OCCCCCCCC(=O)NO)c(C34CC5CC(CC(C5)C3)C4)c2)cc1 [Compound 3, 3-[3′-Adamantan-1-yl-4′-(7-hydroxycarbamoyl-heptyloxy)-biphenyl-4-yl]-acrylic acid]",IC50,Human NCI-H460 NSCLC; [11],≤ 5000 nM
"NCCSSCCNC(=O)CCCOc1ccc(-c2ccc(/C=C/C(=O)O)cc2)cc1C12CC3CC(CC(C3)C1)C2 [Compound 4, 2-(2-{4-[3-Adamantan-1-yl-4′-(2-carboxy-vinyl)-biphenyl-4-yloxy]-butyrylamino}-ethyldisulfanyl)-ethyl-ammonium; trifluoroacetate]",IC50,Human NCI-H460 NSCLC; [11],≤ 10000 nM
"O=C(O)/C=C/c1ccc(-c2ccc(OCCCC(=O)NCCSSCCNC(=O)C(Cc3ccc(O)c(Br)c3)=NO)c(C34CC5CC(CC(C5)C3)C4)c2)cc1 [Compound 5, 3-{3′-Adamantan-1-yl-4′-[3-(2-{2-[3-(3-bromo-4-hydroxy-phenyl)-2-hydroxyimino-propionylamino]-ethyldisulfanyl}-ethylcarbamoyl)-propoxy]-biphenyl-4-yl}-acrylic acid]",IC50,Human NCI-H460 NSCLC; [11],< 5000 nM
"O=C(O)/C=C/c1ccc(-c2ccc(OC(=O)CCC(=O)NCCSSCCNC(=O)/C(Cc3ccc(O)c(Br)c3)=N/O)c(C34CC5CC(CC(C5)C3)C4)c2)cc1 [Compound 6, 3-{3′-Adamantan-1-yl-4′-[3-(2-{2-[3-(3-bromo-4-hydroxy-phenyl)-2-hydroxyimino-propionylamino]-ethyldisulfanyl}-ethylcarbamoyl)-propionyloxy]-biphenyl-4-yl}-acrylic acid]",IC50,Human NCI-H460 NSCLC; [11],< 100 nM
"O=C(O)/C=C/c1ccc(-c2ccc(OCCC(=O)NO)c(C34CC5CC(CC(C5)C3)C4)c2)cc1 [Compound 12, 3-[3′-Adamantan-1-yl-4′-(2-hydroxycarbamoyl-ethoxy)-biphenyl-4-yl]-acrylic acid]",IC50,[1],10600 ± 300 nM
"O=C(COc1ccc(-c2ccc3cc(C(=O)O)ccc3c2)cc1C12CC3CC(CC(C3)C1)C2)NOC1CCCCO1 (stereo not shown) [Compound 13, 6-{3-Adamantan-1-yl-4-[(tetrahydro-pyran-2-yloxycarbamoyl)-methoxy]-phenyl}-naphthalene-2-carboxylic acid]",IC50,[1],16900 ± 500 nM
"O=C(COc1ccc(-c2ccc3cc(C(=O)O)ccc3c2)cc1C12CC3CC(CC(C3)C1)C2)NO [Compound 14, 6-(3-Adamantan-1-yl-4-hydroxycarbamoylmethoxy-phenyl)-naphthalene-2-carboxylic acid]",IC50,[1],2300 ± 400 nM
"NNC(=O)COc1ccc(-c2ccc(C=CC(=O)O)cc2)cc1C12CC3CC(CC(C3)C1)C2 [Compound 17, 3-(3′-adamantan-1-yl-4′-hydrazinocarbonylmethoxy-biphenyl-4-yl)-acrylic acid trifluoroacetate]",IC50,[1],17300 ± 1300 nM
CC(Oc1ccc(-c2ccc(/C=C/C(=O)O)cc2)cc1C12CC3CC(CC(C3)C1)C2)C(=O)NO (stereo not shown) [GEM144],IC50,"Human NCI-H460 NSCLC; 72 h, SRB (Table 8), read-out: NCI-H460 IC50 ± SD",260 ± 9 nM
same,cytotoxic activity / IC50 range on NCI-H460 cells,Human NCI-H460 NSCLC; 72 h,nano molar range
same,RI (Resistance Index),[7]; H460-R9A vs NCI-H460,8.5
same,IC50,"[7]; SRB, read-out: H460-R9A IC50 ± SD",2200 ± 90 nM
same,IC50,[8],950 ± 40 nM
same,IC50,"[9]; 72 h, SRB, read-out: A2780-Dx IC50 ± SD",660 ± 8 nM
same,RI (Resistance Index),"[9]; A2780-Dx vs A2780, 72 h",0.7
same,substrate for the P-gp drug efflux pump,"[9]; indicated by low resistance index, A2780-Dx vs A2780",very poor substrate
same,"cytotoxicity, MM473 mesothelioma",MM473-Luc mesothelioma,very effective
same,IC50,MM473-Luc mesothelioma; read-out: MM473-Luc IC50 ± SD,1400 ± 200 nM
same,"cytotoxicity, MM487 mesothelioma",MM487-Luc mesothelioma [10],very effective
same,IC50,MM487-Luc mesothelioma [10]; read-out: MM487-Luc IC50 ± SD,730 ± 200 nM
same,"cytotoxicity, B16 melanoma",B16-Luc (Melanoma),very effective
same,IC50,B16-Luc (Melanoma); read-out: B16-Luc (Melanoma) IC50 ± SD,370 ± 30 nM
same,IC50,NB4 (leukemia),230 ± 30 nM
same,"cytotoxicity, THP-1 leukemia",THP-1 (leukemia),very effective
same,IC50,THP-1 (leukemia); read-out: THP-1 (leukemia) IC50 ± SD,520 ± 20 nM
same,"cytotoxicity, U2932 lymphoma",U2932 (lymphoma),very effective
same,IC50,U2932 (lymphoma); read-out: U2932 (lymphoma) IC50 ± SD,770 ± 100 nM
same,"cytotoxicity, Z138 lymphoma",Z138 (lymphoma),very effective
same,IC50,Z138 (lymphoma); read-out: Z138 (lymphoma) IC50 ± SD,160 ± 30 nM
same,"cytotoxicity, DU145 prostate carcinoma",DU145 prostate carcinoma,very effective
same,"cytotoxicity, HT29 colon carcinoma",HT29 colon carcinoma,very effective
same,"cytotoxicity, SW620 colon carcinoma",SW620 colon carcinoma,very effective

# Reference: patent publication US20220168252A1, “RETINOID DERIVATIVES WITH ANTITUMOR ACTIVITY” (BIOGEM S.C. A R.L., priority 2016, published 2022)
